This test has as its target T1, human ferroportin (Homo sapiens, UniProt Q9NP59).
T1 construct: luciferase reporter (read with the Nano-Glo Luciferase Assay System); expressed in transfected cells; host or cells: CHO cells, stably transfected, expression induced with doxycycline
T1 sequence (Q9NP59 1-571): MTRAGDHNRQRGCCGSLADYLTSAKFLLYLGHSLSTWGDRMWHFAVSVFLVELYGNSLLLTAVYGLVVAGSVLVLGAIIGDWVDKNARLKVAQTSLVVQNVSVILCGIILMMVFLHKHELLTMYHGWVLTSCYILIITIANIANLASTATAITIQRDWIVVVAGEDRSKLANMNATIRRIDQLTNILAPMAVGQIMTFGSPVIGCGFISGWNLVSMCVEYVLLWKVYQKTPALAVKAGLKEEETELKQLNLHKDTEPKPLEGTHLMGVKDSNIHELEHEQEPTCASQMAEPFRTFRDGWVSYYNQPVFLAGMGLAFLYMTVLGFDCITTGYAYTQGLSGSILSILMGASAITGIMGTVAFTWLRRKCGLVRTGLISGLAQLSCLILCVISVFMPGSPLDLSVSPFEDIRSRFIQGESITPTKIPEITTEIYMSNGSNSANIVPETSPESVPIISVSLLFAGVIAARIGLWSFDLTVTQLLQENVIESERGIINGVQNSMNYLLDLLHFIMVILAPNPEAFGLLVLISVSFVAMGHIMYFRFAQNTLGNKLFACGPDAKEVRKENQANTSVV
Briefly: Biological in-vitro ferroportin internalization assay (luciferase reporter). The class given is cell-based. Particulars: average pEC50; stably-transfected CHO cell line expressing human ferroportin tagged to a luciferase reporter; 6 h incubation with test compound. The method, boiled down:
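Stably transfected CHO cells expressing luciferase-tagged human ferroportin, plated 24 h with ferric ammonium citrate and induced with doxycycline for 24 h. Compounds incubated 6 h, then luciferase activity measured by Nano-Glo; average pEC50 reported.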
For orientation: Reporter assays use an easily measured gene product as a stand-in for the process of interest.
Take `C[C@@H](O)COc1ccnc(-c2nc3c(c(N(C)CC(=O)NC(C)(C)C)n2)CCC3)c1` [Compound 366, N-tert-butyl-2-[(2-{4-[(2R)-2-hydroxypropoxy]pyridin-2-yl}-5H,6H,7H-cyclopenta[d]pyrimidin-4-yl)(methyl)amino]acetamide]: the negative logarithm of the EC50 (pEC50) (as a rule, the EC50 on a negative log10 scale, so that one unit is a factor of ten) is 7.7.

Turning to `CCC(C)(C)NC(=O)CN(C)c1nc(-c2cc(OCCO)ccn2)nc2c1CCC2` [Compound 367, 2-({2-[4-(2-hydroxyethoxy)pyridin-2-yl]-5H,6H,7H-cyclopenta[d]pyrimidin-4-yl}(methyl)amino)-N-(2-methylbutan-2-yl)acetamide], the pEC50 is recorded as 8.

In the case of `CN(CC(=O)N1CCCC1(C)C)c1nc(-c2cc(OCCO)ccn2)nc2c1CCC2` [Compound 368, 1-(2,2-dimethylpyrrolidin-1-yl)-2-({2-[4-(2-hydroxyethoxy)pyridin-2-yl]-5H,6H,7H-cyclopenta[d]pyrimidin-4-yl}(methyl)amino)ethan-1-one], the pEC50 is 7.8.

Molecule `CC(=O)NCCOc1ccnc(-c2nc3c(c(N(C)CC(=O)NC(C)(C)C)n2)CCC3)c1` [Compound 369, N-tert-butyl-2-({2-[4-(2-acetamidoethoxy)pyridin-2-yl]-5H,6H,7H-cyclopenta[d]pyrimidin-4-yl}(methyl)amino)acetamide] registered a pEC50 of 7.7.

`C[C@H](O)COc1ccnc(-c2nc3c(c(N(C)CC(=O)NC(C)(C)C)n2)CCC3)c1` [Compound 370, N-tert-butyl-2-[(2-{4-[(2S)-2-hydroxypropoxy]pyridin-2-yl}-5H,6H,7H-cyclopenta[d]pyrimidin-4-yl)(methyl)amino]acetamide]: the pEC50 was 8.2.

`COc1ccnc(-c2nc3c(c(N(C)CC(=O)N[C@H]4CCOC4)n2)CCC3)c1` [Compound 371, 2-{[2-(4-methoxypyridin-2-yl)-5H,6H,7H-cyclopenta[d]pyrimidin-4-yl](methyl)amino}-N-[(3S)-oxolan-3-yl]acetamide] registered a pEC50 of 7.5.

On to `COc1ccnc(-c2nc3c(c(N(C)CC(=O)N[C@@H]4CCOC4)n2)CCC3)c1` [Compound 372, 2-{[2-(4-methoxypyridin-2-yl)-5H,6H,7H-cyclopenta[d]pyrimidin-4-yl](methyl)amino}-N-[(3R)-oxolan-3-yl]acetamide], for which the pEC50 is 7.5.

`COc1ccnc(-c2nc3c(c(N(C)CC(=O)NC4COC4)n2)CCC3)c1` [Compound 373, 2-{[2-(4-methoxypyridin-2-yl)-5H,6H,7H-cyclopenta[d]pyrimidin-4-yl](methyl)amino}-N-(oxetan-3-yl)acetamide] registered a pEC50 of 7.3.

`CN(CC(=O)NC1COC1)c1nc(-c2cc(OCCO)ccn2)nc2c1CCC2` [Compound 374, 2-({2-[4-(2-hydroxyethoxy)pyridin-2-yl]-5H,6H,7H-cyclopenta[d]pyrimidin-4-yl}(methyl)amino)-N-(oxetan-3-yl)acetamide]: the pEC50 is on record as 7.2.

As for `COc1cc2c(cn1)N(C(=O)CN(C)c1nc(-c3cc(OCCO)ccn3)nc3c1CCC3)CC2` [Compound 375, 2-({2-[4-(2-hydroxyethoxy)pyridin-2-yl]-5H,6H,7H-cyclopenta[d]pyrimidin-4-yl}(methyl)amino)-1-{5-methoxy-1H,2H,3H-pyrrolo[2,3-c]pyridin-1-yl}ethan-1-one], the pEC50 is listed as 8.

In the case of `CN(CC(=O)NC1(C)CCC1)c1nc(-c2cc(OCCO)ccn2)nc2c1CCC2` [Compound 376, 2-({2-[4-(2-hydroxyethoxy)pyridin-2-yl]-5H,6H,7H-cyclopenta[d]pyrimidin-4-yl}(methyl)amino)-N-(1-methylcyclobutyl)acetamide], the pEC50 turned out to be 8.

As for `C[C@@H](O)COc1ccnc(-c2nc3c(c(N(C)CC(=O)NC4(C)CCC4)n2)CCC3)c1` [Compound 377, 2-[(2-{4-[(2R)-2-hydroxypropoxy]pyridin-2-yl}-5H,6H,7H-cyclopenta[d]pyrimidin-4-yl)(methyl)amino]-N-(1-methylcyclobutyl)acetamide], the pEC50 came out at 7.8.

`C[C@H](O)COc1ccnc(-c2nc3c(c(N(C)CC(=O)NC4(C)CCC4)n2)CCC3)c1` [Compound 378, 2-[(2-{4-[(2S)-2-hydroxypropoxy]pyridin-2-yl}-5H,6H,7H-cyclopenta[d]pyrimidin-4-yl)(methyl)amino]-N-(1-methylcyclobutyl)acetamide] came in with a pEC50 of 8.

Turning to `COc1ccnc(-c2nc3c(c(N(C)Cc4nc(Cc5ccccc5)co4)n2)CCC3)c1` [Compound 379, N-[(4-benzyl-1,3-oxazol-2-yl)methyl]-2-(4-methoxypyridin-2-yl)-N-methyl-5H,6H,7H-cyclopenta[d]pyrimidin-4-aminemide], the pEC50 stood at 7.2.

`COc1ccnc(-c2nc3c(c(N(C)Cc4nc(-c5ccccc5)co4)n2)CCC3)c1` [Compound 380, 2-(4-methoxypyridin-2-yl)-N-methyl-N-[(4-phenyl-1,3-oxazol-2-yl)methyl]-5H,6H,7H-cyclopenta[d]pyrimidin-4-amine]: the pEC50 was found to be 6.6.

With `CN(CC(=O)NC(C)(C)C)c1nc(-c2cc(OCC3(O)CCCC3)ccn2)nc2c1CCC2` [Compound 381, N-tert-butyl-2-[(2-{4-[(1-hydroxycyclopentyl)methoxy]pyridin-2-yl}-5H,6H,7H-cyclopenta[d]pyrimidin-4-yl)(methyl)amino]acetamide], the pEC50 was found to be 8.3.

Turning to `CN(CC(=O)N1CCCCC1)c1nc(-c2cc(OCC(C)(C)O)ccn2)nc2c1CCC2` [Compound 382, 2-({2-[4-(2-hydroxy-2-methylpropoxy)pyridin-2-yl]-5H,6H,7H-cyclopenta[d]pyrimidin-4-yl}(methyl)amino)-1-(piperidin-1-yl)ethan-1-oneide], the negative-log EC50 (pEC50) amounted to 7.8.

In turn, `CN(CC(=O)NC12CC(C1)C2)c1nc(-c2cc(OCC(C)(C)O)ccn2)nc2c1CCC2` [Compound 383, N-{bicyclo[1.1.1]pentan-1-yl}-2-({2-[4-(2-hydroxy-2-methylpropoxy)pyridin-2-yl]-5H,6H,7H-cyclopenta[d]pyrimidin-4-yl}(methyl)amino)acetamide] registered a pEC50 of 7.8.

In the case of `C[C@H](CO)Oc1ccnc(-c2nc3c(c(N(C)CC(=O)NC(C)(C)C)n2)CCC3)c1` [Compound 384, N-tert-butyl-2-{[2-(4-{[(2R)-1-hydroxypropan-2-yl]oxy}pyridin-2-yl)-5H,6H,7H-cyclopenta[d]pyrimidin-4-yl](methyl)amino}acetamide], the pEC50 amounted to 8.1.

Consider `C[C@@H](CO)Oc1ccnc(-c2nc3c(c(N(C)CC(=O)NC(C)(C)C)n2)CCC3)c1` [Compound 385, N-tert-butyl-2-{[2-(4-{[(2S)-1-hydroxypropan-2-yl]oxy}pyridin-2-yl)-5H,6H,7H-cyclopenta[d]pyrimidin-4-yl](methyl)amino}acetamide], for which the pEC50 worked out at 8.2. The pEC50 values of the last two molecules are within 0.2 log units of each other.

`CC(C)[C@H](O)COc1ccnc(-c2nc3c(c(N(C)CC(=O)NC(C)(C)C)n2)CCC3)c1` [Compound 386, N-tert-butyl-2-[(2-{4-[(2S)-2-hydroxy-3-methylbutoxy]pyridin-2-yl}-5H,6H,7H-cyclopenta[d]pyrimidin-4-yl)(methyl)amino]acetamide] displayed a pEC50 of 8.4.

Consider `CC(C)[C@@H](O)COc1ccnc(-c2nc3c(c(N(C)CC(=O)NC(C)(C)C)n2)CCC3)c1` [Compound 387, N-tert-butyl-2-[(2-{4-[(2R)-2-hydroxy-3-methylbutoxy]pyridin-2-yl}-5H,6H,7H-cyclopenta[d]pyrimidin-4-yl)(methyl)amino]acetamide], for which the negative-log EC50 (pEC50) came to 8.2.

Take `CN(CC(=O)NC(C)(C)C)c1nc(-c2cc(OCC3(O)CCC3)ccn2)nc2c1CCC2` [Compound 388, N-tert-butyl-2-[(2-{4-[(1-hydroxycyclobutyl)methoxy]pyridin-2-yl}-5H,6H,7H-cyclopenta[d]pyrimidin-4-yl)(methyl)amino]acetamide]: the pEC50 was determined as 8.2.

In turn, `CC(C)NC(=O)CN(C)c1nc(-c2cc(OCC(C)(C)O)ccn2)nc2c1CCC2` [Compound 389, 2-({2-[4-(2-hydroxy-2-methylpropoxy)pyridin-2-yl]-5H,6H,7H-cyclopenta[d]pyrimidin-4-yl}(methyl)amino)-N-(propan-2-yl)acetamide] showed a pEC50 of 7.9.

Molecule `CCNC(=O)CN(C)c1nc(-c2cc(OCC(C)(C)O)ccn2)nc2c1CCC2` [Compound 390, N-ethyl-2-({2-[4-(2-hydroxy-2-methylpropoxy)pyridin-2-yl]-5H,6H,7H-cyclopenta[d]pyrimidin-4-yl}(methyl)amino)acetamide] came in with a pEC50 of 7.8.

For `CN(CC(=O)N1CCC(F)(F)CC1)c1nc(-c2cc(OCC(C)(C)O)ccn2)nc2c1CCC2` [Compound 391, 1-(4,4-difluoropiperidin-1-yl)-2-({2-[4-(2-hydroxy-2-methylpropoxy)pyridin-2-yl]-5H,6H,7H-cyclopenta[d]pyrimidin-4-yl}(methyl)amino)ethan-1-one], the pEC50 is 7.7. This pEC50 and that of the molecule before are within 0.2 log units of each other.

Molecule `CCC(C)(CC)NC(=O)CN(C)c1nc(-c2cc(OCCO)ccn2)nc2c1CCC2` [Compound 392, 2-({2-[4-(2-hydroxyethoxy)pyridin-2-yl]-5H,6H,7H-cyclopenta[d]pyrimidin-4-yl}(methyl)amino)-N-(3-methylpentan-3-yl)acetamide] returned a pEC50 of 8.3.
